Values after ≈ are worked out from the molar mass of the structure shown. Where two headings read alike, the source gives them in different places.
Key:
[1] = test system: Streptococcus Group D 2041; experiment: MIC, standard agar-dilution assay (Table IX); type: cell-based
[2] = test system: Streptococcus pyogenes C203; experiment: MIC, standard agar-dilution assay (Table IX); type: cell-based
[3] = test system: Staphylococcus epidermidis EPI1; experiment: MIC, standard agar-dilution assay (Table IX); type: cell-based; conditions: Staphylococcus epidermidis EPI1, agar-dilution
[4] = test system: Pasteurella multocida; experiment: Pasteurella infection in one-day-old chicks, medicated drinking water (Table XIII); type: in vivo; conditions: Administered in the available drinking water at 2 g/gal
Experimental: (§1) Many of the C-20 modified derivatives of this invention have also shown in vivo antibacterial activity against infections induced by gram-negative bacteria. Tables XII and XIII summarize the results of tests in which illustrative compounds were evaluated against a Pasteurella infection in one-day-old chicks. The compounds were administered parenterally or orally after challenge of the chicks with Pasteurella multocida (0.1 ml of a 10^-4 dilution of a twenty-hour tryptose broth culture of an avian P. multocida given subcutaneously). In these tests, unless indicated otherwise, all non-medicated infected chicks died within 24 hours of Pasteurella challenge. In the tests summarized in Table XII, the compounds were administered by subcutaneous injection at a dosage of 30 mg/kg, 1 and 4 hours post-challenge of the chicks with P. multocida. In the tests summarized in Table XIII the compounds were administered in medicated drinking water (at a level of 2 g/gal) available from 4 to 20 hours prior to challenge of the chicks with P. multocida and during the 3 -day test period.
^a Administered in the available drinking water at a concentration of […]

[5] = test system: Escherichia coli N10; experiment: MIC, standard agar-dilution assay (Table IX); type: cell-based
[6] = test system: Streptococcus Group D X66; experiment: MIC, standard agar-dilution assay (Table IX); type: cell-based
[7] = test system: Haemophilus influenzae C.L.; experiment: MIC, standard agar-dilution assay (Table IX); type: cell-based; conditions: Ampicillin-sensitive strain
[8] = test system: Staphylococcus aureus X400; experiment: MIC, standard agar-dilution assay (Table IX); type: cell-based; conditions: Staphylococcus aureus X400, Methicillin-resistant strain
[9] = test system: Staphylococcus aureus S13E; experiment: MIC, standard agar-dilution assay (Table IX); type: cell-based
[10] = test system: Klebsiella X26; experiment: MIC, standard agar-dilution assay (Table IX); type: cell-based
[11] = test system: Pasteurella multocida; experiment: Pasteurella infection in one-day-old chicks, subcutaneous administration (Table XII); type: in vivo; conditions: Administered subcutaneously, 30 mg/kg × 2, 1 and 4 hours post-challenge
Experimental: as §1
^a Administered subcutaneously; 30 mg/kg × 2

[12] = test system: Staphyloccus aureus X1.1; experiment: MIC, standard agar-dilution assay (Table IX); type: cell-based, Staphylococcus aureus
[13] = test system: Staphylococcus epidermidis 222; experiment: MIC, standard agar-dilution assay (Table IX); type: cell-based
[14] = test system: Staphylococcus aureus; experiment: MIC, broth-dilution microtiter test (Table X); type: cell-based
Source text: (§2) The MIC's in Table X were obtained using conventional broth-dilution microtiter tests.

[15] = test system: Mycoplasma gallisepticum 29C; experiment: MIC, broth-dilution microtiter test (Table X); type: cell-based
Source text: as §2

[16] = test system: Mycoplasma synoviae 40A; experiment: MIC, broth-dilution microtiter test (Table X); type: cell-based
Source text: as §2

[17] = test system: Mycoplasma hyopneumoniae S5972; experiment: MIC, broth-dilution microtiter test (Table X); type: cell-based
Source text: as §2

[18] = test system: Pasteurella multocida 60A; experiment: MIC, broth-dilution microtiter test (Table X); type: cell-based; conditions: Avian isolate
Source text: as §2

[19] = test system: Pasteurella hemolytica 22C; experiment: MIC, broth-dilution microtiter test (Table X); type: cell-based
Source text: as §2

[20] = test system: Mycoplasma hyorhinis 29E; experiment: MIC, broth-dilution microtiter test (Table X); type: cell-based
Source text: as §2

[21] = test system: Pasteurella multocida 17E; experiment: MIC, broth-dilution microtiter test (Table X); type: cell-based; conditions: Bovine isolate
Source text: as §2

[22] = test system: Streptococcus sp. 19F; experiment: MIC, broth-dilution microtiter test (Table X); type: cell-based
Source text: as §2

[23] = test system: Staphylococcus aureus V41; experiment: MIC, standard agar-dilution assay (Table IX); type: cell-based; conditions: Staphylococcus aureus V41, Penicillin-resistant strain
[24] = test system: Streptococcus pneumoniae Park I; experiment: MIC, standard agar-dilution assay (Table IX); type: cell-based; conditions: Streptococcus pneumoniae Park I, agar-dilution
[25] = test system: Escherichia coli TEM; experiment: MIC, standard agar-dilution assay (Table IX); type: cell-based
[26] = Titratable groups in 66% aqueous DMF (Tables XIV-XVI); type: physicochemical
Source text: ^c Run in 66% aqueous DMF
^d Run in 66% aqueous DMF

[27] = test system: Haemophilus influenzae 76; experiment: MIC, standard agar-dilution assay (Table IX); type: cell-based; conditions: Haemophilus influenzae 76, Ampicillin-resistant strain
[28] = test system: Escherichia coli EC14; experiment: MIC, standard agar-dilution assay (Table IX); type: cell-based
[29] = test system: Streptococcus pyogenes C203; experiment: ED50 in mice experimentally infected with S. pyogenes C203 (Table XI); type: in vivo; conditions: Streptococcus pyogenes, doses given 1 and 4 hours postinfection, read-out: ED50
In short: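 Mice infected with S. pyogenes C203 received two doses of compound, 1 and 4 h post-infection. ED50 is the dose in mg/kg (per dose, ×2) protecting 50% of animals.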

[30] = Staphylococcus aureus, read-out: MIC
[31] = Mycoplasmoides gallisepticum, read-out: MIC
[32] = Mycoplasmopsis synoviae, read-out: MIC
[33] = Mesomycoplasma hyopneumoniae, read-out: MIC

Compound `CCC1OC(=O)CC(O)C(C)C(OC2OC(C)C(O)C(N(C)C)C2O)C(CCN2CCC(C)CC(C)(C)C2)CC(C)C(=O)C=CC(C)=CC1COC1OC(C)C(O)C(OC)C1OC` (single isomer, unassigned) [Compound D23, 20-DH-DO-20-(3,3,5-Trimethylhexahydroazepin-1-yl)desmycosin] has an MIC [1] of 8 µg/mL (≈ 8.92 µM), an MIC [2] of 0.5 µg/mL (≈ 0.557 µM) and an MIC [3] of 0.5 µg/mL (≈ 0.557 µM). For the same compound, the “Number of Deaths/Number Treated” value [4] was 4/10, the MIC [5] was 64 µg/mL (≈ 71.3 µM) and the MIC [6] was 4 µg/mL (≈ 4.46 µM). For the same compound, the MIC [7] was 16 µg/mL (≈ 17.8 µM), the MIC [8] was 1 µg/mL (≈ 1.11 µM) and the MIC ([9]; Staphylococcus aureus S13E, agar-dilution) was 0.5 µg/mL (≈ 0.557 µM). The MIC [10] was 128 µg/mL (≈ 143 µM), the “Number of Deaths/Number Treated” value [11] was 8/10 and the MIC [12] was 0.5 µg/mL (≈ 0.557 µM). For the same compound, the MIC [13] was 0.5 µg/mL (≈ 0.557 µM), the MIC [14] was 3.12 µg/mL (≈ 3.48 µM) and the MIC [15] was 0.097 µg/mL (≈ 0.108 µM). It also gave an MIC [16] of 0.097 µg/mL (≈ 0.108 µM), an MIC [17] of 0.78 µg/mL (≈ 0.869 µM) and an MIC [18] of 12.5 µg/mL (≈ 13.9 µM). The MIC [19] was 3.12 µg/mL (≈ 3.48 µM), the MIC [20] was 6.25 µg/mL (≈ 6.97 µM) and the MIC [21] was 6.25 µg/mL (≈ 6.97 µM). For the same compound, the MIC [22] was 1.56 µg/mL (≈ 1.74 µM), the MIC [23] was 0.5 µg/mL (≈ 0.557 µM) and the MIC [24] was 0.5 µg/mL (≈ 0.557 µM). For the same compound, the MIC [25] was 32 µg/mL (≈ 35.7 µM), the “Titratable groups” value [26] was 9.0 and the “Titratable groups (first value)” value [26] was 7.7. The MIC [27] was 8 µg/mL (≈ 8.92 µM) and the MIC [28] was 64 µg/mL (≈ 71.3 µM).
For `CCC1OC(=O)CC(O)C(C)C(OC2OC(C)C(O)C(N(C)C)C2O)C(CCN2CCCc3ccccc32)CC(C)C(=O)C=CC(C)=CC1COC1OC(C)C(O)C(OC)C1OC` (stereo not drawn) [Compound D11, 20-DH-DO-20-(1,2,3,4-Tetrahydroquinolin-1-yl)desmycosin], the MIC ([1]; GROUPD2041, read-out: MIC) was 8 µg/mL (≈ 9 µM), the MIC ([2]; read-out: MIC) was 0.5 µg/mL (≈ 0.562 µM) and the MIC ([3]; read-out: MIC) was 0.5 µg/mL (≈ 0.562 µM). The “Number of Deaths/Number Treated” value [4] was 8/10, the MIC ([5]; read-out: MIC) was over 128 µg/mL and the MIC ([6]; read-out: MIC) was 8 µg/mL (≈ 9 µM). For the same compound, the ED50 ([29]; C203, Oral) was 19 mg/kg, the ED50 ([29]; C203, sc, Subcutaneous) was 7.5 mg/kg and the MIC ([7]; read-out: MIC) was 64 µg/mL (≈ 72 µM). The MIC ([8]; read-out: MIC) was 0.5 µg/mL (≈ 0.562 µM), the MIC ([9]; Staphylococcus aureus, S13E) was 0.5 µg/mL (≈ 0.562 µM) and the MIC ([10]; read-out: MIC) was over 128 µg/mL. For the same compound, the “Number of Deaths/Number Treated” value [11] was 10/10, the MIC [12, 30] was 0.5 µg/mL (≈ 0.562 µM) and the MIC ([13]; read-out: MIC) was 0.25 µg/mL (≈ 0.281 µM). For the same compound, the MIC ([14]; read-out: MIC) was 1.56 µg/mL (≈ 1.75 µM), the MIC [15, 31] was at most 0.048 µg/mL and the MIC [16, 32] was 0.78 µg/mL (≈ 0.877 µM). The MIC [17, 33] was 1.56 µg/mL (≈ 1.75 µM), the MIC ([18]; read-out: MIC) was 50 µg/mL (≈ 56.2 µM) and the MIC ([19]; read-out: MIC) was 25 µg/mL (≈ 28.1 µM). It also gave an MIC ([20]; read-out: MIC) of 6.25 µg/mL (≈ 7.03 µM), an MIC ([21]; read-out: MIC) of 12.5 µg/mL (≈ 14.1 µM) and an MIC ([22]; read-out: MIC) of 3.12 µg/mL (≈ 3.51 µM). It also gave an MIC ([23]; read-out: MIC) of 0.5 µg/mL (≈ 0.562 µM), an MIC ([24]; read-out: MIC) of 2 µg/mL (≈ 2.25 µM) and an MIC ([25]; read-out: MIC) of over 128 µg/mL. It also gave an MIC ([27]; read-out: MIC) of 8 µg/mL (≈ 9 µM) and an MIC ([28]; read-out: MIC) of over 128 µg/mL.
Work on `CCC1OC(=O)CC(O)C(C)C(OC2OC(C)C(O)C(N(C)C)C2O)C(CCN2CCc3ccccc3C2)CC(C)C(=O)C=CC(C)=CC1COC1OC(C)C(O)C(OC)C1OC` (stereo not drawn) [Compound D12, 20-DH-DO-20-(1,2,3,4-Tetrahydroisoquinolin-2-yl)desmycosin] yielded an MIC ([1]; GROUPD2041, read-out: MIC) of 8 µg/mL (≈ 9 µM), an MIC ([2]; read-out: MIC) of 0.5 µg/mL (≈ 0.562 µM) and an MIC ([3]; read-out: MIC) of 0.5 µg/mL (≈ 0.562 µM). The “Number of Deaths/Number Treated” value [4] was 8/10, the MIC ([5]; read-out: MIC) was over 128 µg/mL and the MIC ([6]; read-out: MIC) was 4 µg/mL (≈ 4.5 µM). For the same compound, the ED50 ([29]; C203, Oral) was under 6.3 mg/kg, the ED50 ([29]; C203, sc, Subcutaneous) was 2 mg/kg and the MIC ([7]; read-out: MIC) was 16 µg/mL (≈ 18 µM). The MIC ([8]; read-out: MIC) was 0.5 µg/mL (≈ 0.562 µM), the MIC ([9]; Staphylococcus aureus, S13E) was 0.5 µg/mL (≈ 0.562 µM) and the MIC ([10]; read-out: MIC) was 32 µg/mL (≈ 36 µM). For the same compound, the “Number of Deaths/Number Treated” value [11] was 9/10, the MIC [12, 30] was 0.5 µg/mL (≈ 0.562 µM) and the MIC ([13]; read-out: MIC) was 0.25 µg/mL (≈ 0.281 µM). For the same compound, the MIC ([14]; read-out: MIC) was 1.56 µg/mL (≈ 1.75 µM), the MIC [15, 31] was at most 0.048 µg/mL and the MIC [16, 32] was 0.39 µg/mL (≈ 0.439 µM). It also gave an MIC [17, 33] of 3.12 µg/mL (≈ 3.51 µM), an MIC ([18]; read-out: MIC) of 12.5 µg/mL (≈ 14.1 µM) and an MIC ([19]; read-out: MIC) of 3.12 µg/mL (≈ 3.51 µM). It also gave an MIC ([20]; read-out: MIC) of 12.5 µg/mL (≈ 14.1 µM), an MIC ([21]; read-out: MIC) of 6.25 µg/mL (≈ 7.03 µM) and an MIC ([22]; read-out: MIC) of 3.12 µg/mL (≈ 3.51 µM). It also gave an MIC ([23]; read-out: MIC) of 0.5 µg/mL (≈ 0.562 µM), an MIC ([24]; read-out: MIC) of 1 µg/mL (≈ 1.12 µM) and an MIC ([25]; read-out: MIC) of 64 µg/mL (≈ 72 µM). For the same compound, the MIC ([27]; read-out: MIC) was 8 µg/mL (≈ 9 µM) and the MIC ([28]; read-out: MIC) was 128 µg/mL (≈ 144 µM).
